Active and inactive are the calls of the source. The calls are words filed in the database; no cut-off is given here.

In general, EC50 refers to the concentration that produces a half-maximal response.

The target of assay [1] is T1, Hydroxycarboxylic acid receptor 3 (Homo sapiens, UniProt P49019). Particulars: CHO-K1; 30 pM.
Assay [2] concerns the target T1, Hydroxycarboxylic acid receptor 3. The assay can be described thus: Agonist activity at GPR109b receptor transfected in CHOK1 cells assessed as inhibition of forskolin-induced cAMP generation by HTRF assay. It counts as functional, cell-based, CHO-K1. In general terms: Time-resolved FRET reads energy transfer from a long-lived donor to a nearby acceptor.
Assay [3] addresses Hydroxycarboxylic acid receptor 2 (Homo sapiens) (UniProt Q8TDS4). The assay can be described thus: Agonist activity at GPR109a receptor transfected in CHOK1 cells assessed as inhibition of forskolin-induced cAMP generation at 30 pM to 100 uM by HTRF assay. It counts as functional, cell-based. Particulars: CHO-K1.
In assay [4] the target is T1, Hydroxycarboxylic acid receptor 3. The assay can be described thus: Agonist activity at GPR109b receptor transfected in forskolin-stimulated CHOK1 cells assessed as cAMP generation at 10 uM by HTRF assay. Type of assay: functional, cell-based. The note with it: CHO-K1.

T1 sequence (P49019 whole entry): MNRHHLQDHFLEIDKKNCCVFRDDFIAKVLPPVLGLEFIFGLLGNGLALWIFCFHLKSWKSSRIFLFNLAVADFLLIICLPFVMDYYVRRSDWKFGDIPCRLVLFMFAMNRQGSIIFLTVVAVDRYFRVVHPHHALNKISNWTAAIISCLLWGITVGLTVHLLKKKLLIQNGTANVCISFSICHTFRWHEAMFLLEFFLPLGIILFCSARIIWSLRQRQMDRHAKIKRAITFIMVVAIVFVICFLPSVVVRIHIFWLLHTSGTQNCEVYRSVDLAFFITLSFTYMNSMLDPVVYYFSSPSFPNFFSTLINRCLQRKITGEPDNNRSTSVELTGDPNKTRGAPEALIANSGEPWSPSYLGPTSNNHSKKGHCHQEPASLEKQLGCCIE
Hydroxycarboxylic acid receptor 2 (Homo sapiens), sequence (Q8TDS4 whole entry): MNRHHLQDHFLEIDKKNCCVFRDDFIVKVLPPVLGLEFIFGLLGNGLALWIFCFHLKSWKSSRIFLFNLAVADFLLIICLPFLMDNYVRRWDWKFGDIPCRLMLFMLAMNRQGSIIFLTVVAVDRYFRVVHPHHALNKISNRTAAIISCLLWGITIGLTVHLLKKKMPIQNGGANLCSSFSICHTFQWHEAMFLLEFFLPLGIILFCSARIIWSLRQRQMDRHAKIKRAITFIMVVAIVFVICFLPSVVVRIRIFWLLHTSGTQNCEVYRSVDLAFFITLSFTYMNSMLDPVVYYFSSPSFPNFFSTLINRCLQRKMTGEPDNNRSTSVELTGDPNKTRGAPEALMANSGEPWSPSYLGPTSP

For `O=C(O)c1cc(N(Cc2ccoc2)Cc2ccsc2)[nH]n1`, in assay [1], the pEC50 result was “inactive”. In the case of `O=C(O)c1cc(N(CC2CC2)CC2CC2)[nH]n1`, the EC50 in assay [2] was 3.98 µM. Further, in assay [3], the pEC50 result was “inactive”. Regarding `O=C(O)c1cc(N(Cc2ccsc2)Cc2ccco2)[nH]n1`, the concentration for a half-maximal effect (EC50) in assay [2] is greater than 10 µM. Regarding `Cc1ccc(CN(Cc2ccc(C)s2)c2cc(C(=O)O)n[nH]2)s1`, the pEC50 result in assay [1] is “inactive”.

With `O=C(O)c1cc(N(Cc2ccsc2)Cc2ccsc2)[nH]n1`, in assay [2], the EC50 was 0.00316 µM. The same measure, in the same setting: the same measure for `O=C(O)c1cc(N(Cc2cccs2)Cc2cccs2)[nH]n1`: 0.257 µM; for `O=C(O)c1cc(N(Cc2ccccc2)Cc2ccccc2)[nH]n1`: 0.851 µM. As to `O=C(O)c1cc(NCc2ccccc2)[nH]n1`, the pEC50 entry in assay [1] is “inactive”. Take `O=C(O)c1cc(N(Cc2cccc(F)c2)Cc2cccc(F)c2)[nH]n1`: in assay [2], the concentration for a half-maximal effect (EC50) is greater than 10 µM.

`O=C(O)c1cc(N(Cc2ccc(Br)s2)Cc2ccc(Br)s2)[nH]n1`: in assay [1], the pEC50 result is “inactive”.

With `O=C(O)c1cc(N(Cc2ccc(F)cc2)Cc2ccc(F)cc2)[nH]n1`, the EC50 in assay [2] was greater than 10 µM. Moreover, the pEC50 entry in assay [3] is “inactive”. On to `CCCCCCN(CCCCCC)c1cc(C(=O)O)n[nH]1`, for which, in assay [2], the EC50 is greater than 10 µM.

For `CCCC(C)Nc1cc(C(=O)O)n[nH]1` (stereo unspecified), the EC50 in assay [2] was 6.76 µM. In addition, the pEC50 result in assay [3] is “inactive”. With `O=C(O)c1cc(N(Cc2ccc(F)cc2)Cc2ccsc2)[nH]n1`, the pEC50 result in assay [1] is “inactive”. As to `CCC(C)Nc1cc(C(=O)O)n[nH]1` (stereo unspecified), the EC50 in assay [2] was 4.47 µM. In addition, the pEC50 entry in assay [3] was “inactive”. Consider `CC(C)CCN(CCC(C)C)c1cc(C(=O)O)n[nH]1`, for which, in assay [2], the EC50 is greater than 10 µM. Same read-out and setting: the same measure for `O=C(O)c1cc(N(CCc2ccccc2)CCc2ccccc2)[nH]n1`: 5.62 µM. Consider `C=CCNc1ccc(C(=O)O)cn1`, for which, in assay [4], the Activity stood at 200%. For the same compound, in assay [2], the EC50 was 0.0417 µM. With `CCCN(CCC)c1cc(C(=O)O)n[nH]1`, the EC50 in assay [2] was 8.32 µM. On the same count and under the same terms, the value for `O=C(O)c1cc(N(Cc2ccccc2)Cc2ccsc2)[nH]n1` was 0.0145 µM. For the compound `O=C(O)c1cc(N(CC2CCCCC2)CC2CCCCC2)[nH]n1`, in assay [1], the pEC50 entry was “inactive”.

`O=C(O)c1cc(N(Cc2ccccc2F)Cc2ccccc2F)[nH]n1`: the EC50 in assay [2] is 8.71 µM. Besides, the pEC50 entry in assay [3] was “inactive”. Taken in the same sequence, the figures for `O=C(O)c1cc(N(Cc2ccoc2)Cc2ccoc2)[nH]n1` were 8.91 µM and “inactive”. On to `O=C(O)c1cc(N(Cc2ccsc2)Cc2cccs2)[nH]n1`, for which the half-maximal effective concentration (EC50) in assay [2] is 0.141 µM.

The values are drawn from ChEMBL document CHEMBL1152375 (Bioorg Med Chem Lett, 2009).
